Measured values published in patent US8912144B2, “Method for treating stroke via administration of NEP1-40 and inosine” (Children's Medical Center Corporation, priority 2003, dated 2014).
Entries after “also recorded” stand apart in the source; their conditions may differ.

Columns and labels:
Format in all cases: in vivo, rat
[1] = Horizontal (irregular) ladder walk after dorsal hemisection of the spinal cord; details: i.c.v. (50 mM, 0.25 μl/hour) or i.v. (260 mM, 10 μl/hour) for 4 weeks
Protocol: (§1) To test the effects of inosine on spinal cord injury, the dorsal half of the spinal cord in rats was transected, severing the descending CST and other pathways. CST loss severely disrupted fine, skilled behaviors. Inosine was then administered either intra-cerebroventricularly (50 mM, 0.25 μl/hour) or intravenously (260 mM, 10 μl/hour) for 4 weeks. […] Complete transection of the corticospinal tract was verified histologically. The effectiveness of inosine was clinically relevant, since it avoids the risk of intracerebral infection.

[2] = system: C1q, C3, metallothionein; assay: Immunohistochemistry for C1q, C3 and metallothionein in layer 5 of the uninjured forelimb motor cortex; details: 7 days after stroke
Protocol: To investigate whether some of the changes seen in the microarray study translate into differences at the protein level, immunohistochemistry was performed for C1q, C3, and metallothionein (Study VII). […] Immunohistochemistry was used to investigate whether inosine-induced changes found at the mRNA level translate into changes at the protein level. Analyses were carried out in layer 5 of the uninjured forelimb motor cortex 7 days after a stroke was induced in the corresponding region of the contralateral hemisphere. Inosine induced changes in levels of complement proteins C1q (a) and C3 (b) and metallothionine (c).

[3] = Skilled forelimb-reaching (food pellet retrieval) task after stroke; details: for food pellet retrieval with impaired paw, % of baseline: long-term study
Protocol: (§2) All procedures were carried out in accordance with NIH Guidelines with the approval of Children's Hospital Animal Care and Use Committee. Unilateral in-farcts were induced in the sensorimotor cortex of adult Sprague-Dawley rats (275-300 g; Charles River Laboratories, Wilmington, Mass.) using the photothrombotic model of focal ischemia (Markgraf et al., 1993). Briefly, rats were anesthetized with a combination of ketamine (75 mg/kg) and Domitor (medetomidine; 0.5 mg/kg) and a 15 mm skin incision was made at the midline rostral to the posterior suture. A craniotomy was performed over the sensorimotor cortex using a hand-held drill to open a window that spanned medio-laterally between the sagittal sinus and temporal ridge, and rostro-caudally between Bregma +2.5 mm and Bregma −3.5 mm. The photosensitive dye Rose Bengal was injected into the femoral vein, and a fiber-optic cable connected to a xenon light source was centered over the craniotomy, focusing light directly on the exposed region of the brain for 30 minutes. A green filter fitted over the bulb restricted illumination to ˜525 nm, a wavelength that excites Rose Bengal and causes it to release free radical species. The subsequent damage to endothelial cells in exposed portions of the cortical vasculature causes platelet aggregation, resulting in severe focal ischemia. […] Control animals were generated using the same surgical procedure but without photo-activation of Rose Bengal. Animals with strokes were randomly assigned to receive a continuous infusion of either saline (0.9%, Baxter Scientific; n=12), inosine (50 mM in saline, Sigma-Aldrich Co., St. Louis, Mo.; n=12), NEP1-40 (500 μM in 2.5% DMSO/97.5% saline; n=12), or inosine +NEP1-40 (n=12) into the cisterna magna using osmotic minipumps (0.25 μl/h, Alzet model 2004, Durect Corpora-tion, Palo Alto, Calif.). In addition to these, a separate set of animals with the same 4 groups (n=12 in each) was created for a long-term behavioral study. Because CSF drug concentrations presumably require several hours to achieve steady-state levels when delivered via slow-releasing osmotic pumps, all animals received a 25 μl intraventricular bolus of the appropriate agent prior to pump placement. Pumps were tucked between the shoulder blades and infusion needles were secured onto the cranium with a silicon-based glue. The incision was closed with silk sutures and cleaned with betadine and ethanol pads. For 72 hours following surgery, animals received twice-daily, subcu-taneous injections of Buprenex (buprenorphine; Reckitt Benkiser Pharmaceuticals Inc., Richmond, Va.) for pain management.
In animals in which both behavioral testing and anatomical tracing was performed, animals were tested at 7, 14, 21, and 28 days after surgery, whereas in the long-term behavioral study, minipumps were removed after 4 weeks and testing was continued weekly for another 4 weeks. All testing was done by an experimenter blind to the animals' treatments. A skilled forelimb-reaching task was used to test functional recovery after stroke. The task requires the rat to reach with either paw through a narrow slit in a Plexiglas box, grasp a banana-flavored food pellet (Bio-Serv, Inc., Frenchtown, N.J.) from a platform, and bring it successfully to the mouth (Allred and Jones, 2004; Luke et al., 2004). Three days prior to and during training, animals were maintained on a restricted diet of banana-flavored pellets to remove novelty-induced hesitation and to increase motivation. Rats were trained 30-60 minutes per day with each paw for two weeks or until they reached a baseline performance of 20-30 successful reaches in a two-minute period. At the end of the training period but prior to surgery, each animal was tested for the number of pellets it successfully grasped and ate in a two-minute trial, making certain that animals were motivated and stress-free. […]

[4] = system: corticospinal tract (CST) axons; assay: BDA anterograde tracing of CST fibers from the undamaged hemisphere into the denervated side of the spinal cord after stroke
Protocol: as §2
In groups treated for four weeks after stroke, animals were re-anesthetized, the infusion needle and pump were removed, and a craniotomy was performed over the uninjured SMA. The anterograde tracer bioti-nylated dextran amine (BDA: Molecular Probes: 10% wt/vol in sterile saline) was injected stereotaxically at depths of 0.5, 1.0, and 2.0 mm below the cortical surface at 18 standardized points distributed over the sensorimotor cortex (70 nl per injection; Nano-ject, Drummond Scientific, Broomall, Pa.). Two weeks later, animals were anesthetized and perfused transcardially with 0.9% saline followed by 4% paraformaldehyde. The brain and spinal cord were dissected and post-fixed overnight in 4% paraformaldehyde, followed by 10% and 30% sucrose solutions over the next few days. Tissue was em-bedded in OCT Tissue Tek Medium (Sakura Finetek USA Inc., CA) and frozen on dry ice. Forty micron free-floating sections were cut in the coronal plane on a Frigo-Jung 8500 cryostat. Free-floating spinal cord sections were used to detect crossing fibers using avidin-biotin complex conjugated to horseradish peroxidase (Vectastain ABC Kit; Vector Laboratories), followed by Vector SG (Vector Laboratories) as a chromagen. Sections were mounted on pre-coated slides and lightly counterstained with eosin to distinguish grey and white matter boundaries. […]

[5] = Basso-Beatty-Bresnahan (BBB) locomotor test after dorsal hemisection of the spinal cord; details: i.c.v. (50 mM, 0.25 μl/hour) or i.v. (260 mM, 10 μl/hour) for 4 weeks
Protocol: as §1

[6] = layer 5 of undamaged hemisphere
[7] = layer 5 of undamaged hemisphere, vs saline
[8] = 4 weeks treatment after stroke, vs saline

In the case of OC[C@H]1O[C@@H](n2cnc3c(O)ncnc32)[C@H](O)[C@@H]1O [inosine], the “performance on horizontal ladder walk” value [1] is reported as “enhanced performance; also recorded: far superior to saline-treated controls”, the “metallothionine positively staining profiles per field” value [2] is reported as 17.9±0.8 and the “increase of number of metallothionine positively staining profiles per field” value ([2]; vs saline) is reported as 28%. The “C1q average grain pixel density” value [2, 6] was 5654±894, the “C3 average grain pixel density” value [2, 6] was 1377±101 and the “increase of C1q staining intensity” value [2, 7] was 75%. For the same compound, the “increase of C3 staining intensity” value [2, 7] was 37%, the “food pellet retrieval with impaired paw, outcome in words” value (“food pellet retrieval … in words” below) ([3]; 4-week study) was “superior to that of controls at 1 week” and the “food pellet retrieval … in words” value ([3]; eight-week (long-term) study) was “significantly better than that of saline-treated controls from week 2 on”. The “food pellet retrieval … in words” value ([3]; eight-week (long-term) study, listed as Inosine) was “strongly enhanced the effect of NEP1-40”, the “food pellet retrieval with impaired paw, % of baseline” value ([3]; week eight (4 weeks after pump removal)) was ~80% and the “food pellet retrieval with impaired paw, % of baseline” value ([3]; week four) was ~70%. For the same compound, the “performance with the unaffected (unimpaired) paw” value ([3]; paw ipsilateral to the stroke) was “performed normally; also recorded: No differences were detected”, the “food pellet retrieval with impaired paw, percentage of baseline (pre-operative) level” value ([3]; week 4 after stroke, 4-week study) was “approximately 80%” and the “number of synaptic bouton-like structures” value ([4]; 0.25 mm^2 box spanning Laminae VI and VII, vs saline) was “tripled”. The “increase in number of labeled fibers ≧40 μm in gray matter on the denervated side” value [4, 8] was 2.5 fold, the “increase in number of lengthy axons (>200 μm) in gray matter on the denervated side” value [4, 8] was 3.5 fold and the “number of BDA-labeled CST fibers, inosine- vs saline-treated” value ([4]; CST axons labeled two weeks after stroke) was “No significant differences”. The “increase in number of CST fibers re-crossing the midline to enter the denervated dorsal funiculus, relative to controls” value ([4]; inosine 50 mM infusion 4 weeks after stroke) was “three-fold”, the “number of CST fibers in the denervated dorsal funiculus relative to NEP1-40 alone” value ([4]; inosine combined with NEP1-40) was “did not increase” and the “number of axons >40 μm in the cervical gray matter relative to NEP1-40 alone” value ([4]; inosine combined with NEP1-40) was “strongly increased”. For the same compound, the “number of axons >200 μm in the cervical gray matter relative to NEP1-40 alone” value ([4]; inosine combined with NEP1-40) was “strongly increased” and the “performance on BBB test for general locomotor activity” value [5] was “enhanced performance; also recorded: returned to near-normal level of performance”.
